According to the supplement of paper PMC4862054:

Columns and labels:
[1] = tested on: CAL-148; test: normalised viability (% of control), CellTiter-Blue; higher = more viable cells (about 100 = DMSO control); conditions: 300 nM; incubation time: 72 h
Experimental: (§1)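 DSRT, CellTiter-Blue viability, 72 h incubation. Signal is normalised to DMSO and benzethonium chloride controls. Value is the normalised response at dose 6.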

[2] = tested on: CAL-51; test: as above; conditions: 300 nM; incubation time: 72 h
Experimental: as §1

[3] = tested on: DU-4475; test: as above; conditions: 300 nM; incubation time: 72 h
Experimental: as §1

[4] = tested on: CAL-85-1; test: as above; conditions: 300 nM; incubation time: 72 h
Experimental: as §1

[5] = tested on: MDA-MB-453; test: as above; conditions: 300 nM; incubation time: 72 h
Experimental: as §1

[6] = tested on: HDQ-P1; test: as above; conditions: 300 nM; incubation time: 72 h
Experimental: as §1

[7] = tested on: SK-BR-3; test: normalised viability (% of control), CellTiter-Blue; higher = more viable cells (100 = DMSO, 0 = benzethonium chloride kill control); conditions: 1 nM; incubation time: 72 h
Experimental: (§2)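 DSRT, CellTiter-Blue viability, 72 h incubation. Signal is normalised to DMSO and benzethonium chloride controls. Value is the normalised response at dose 1.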

[8] = tested on: BT-474; test: as above; conditions: 1 nM; incubation time: 72 h
Experimental: as §2

[9] = tested on: CAL-148; test: as above; conditions: 1 nM; incubation time: 72 h
Experimental: as §2

[10] = tested on: CAL-51; test: as above; conditions: 1 nM; incubation time: 72 h
Experimental: as §2

[11] = tested on: HCC1143; test: as above; conditions: 1 nM; incubation time: 72 h
Experimental: as §2

[12] = tested on: MDA-MB-231; test: as above; conditions: 1 nM; incubation time: 72 h
Experimental: as §2

[13] = tested on: DU-4475; test: as above; conditions: 1 nM; incubation time: 72 h
Experimental: as §2

[14] = tested on: BT-549; test: as above; conditions: 1 nM; incubation time: 72 h
Experimental: as §2

[15] = tested on: CAL-85-1; test: as above; conditions: 1 nM; incubation time: 72 h
Experimental: as §2

[16] = tested on: HCC1599; test: as above; conditions: 1 nM; incubation time: 72 h
Experimental: as §2

[17] = tested on: MDA-MB-453; test: as above; conditions: 1 nM; incubation time: 72 h
Experimental: as §2

[18] = tested on: MDA-MB-436; test: as above; conditions: 1 nM; incubation time: 72 h
Experimental: as §2

[19] = tested on: Hs578T; test: as above; conditions: 1 nM; incubation time: 72 h
Experimental: as §2

[20] = tested on: MFM-223; test: as above; conditions: 1 nM; incubation time: 72 h
Experimental: as §2

[21] = tested on: MDA-MB-468; test: as above; conditions: 1 nM; incubation time: 72 h
Experimental: as §2

[22] = tested on: CAL-120; test: as above; conditions: 1 nM; incubation time: 72 h
Experimental: as §2

[23] = tested on: HCC1937; test: as above; conditions: 1 nM; incubation time: 72 h
Experimental: as §2

[24] = tested on: HDQ-P1; test: as above; conditions: 1 nM; incubation time: 72 h
Experimental: as §2

[25] = tested on: MCF-10A; test: drug sensitivity score (DSS), CellTox Green (DSS (AUC-based score)); higher = stronger drug effect (viability inhibition or cytotoxicity); extreme values may be limits of the assay; conditions: incubation time: 72 h
How it was run: (§3)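 Compound was dispensed into 384-well plates at 5 concentrations in 10-fold steps spanning a 10,000-fold range chosen for each compound, and 20 µl of breast cancer cell suspension was added before 72 h of incubation. CellTox Green fluorescence was read at 485/520 nm, followed by CellTiter-Glo luminescence after 10 min at room temperature. Values on each plate were normalised to 0.1 % DMSO and a positive kill control. The drug sensitivity score came from the area under the fitted dose-response curve.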

[26] = tested on: MFM-223; test: as above; conditions: incubation time: 72 h
How it was run: as §3

[27] = tested on: HCC1937; test: as above; conditions: incubation time: 72 h
How it was run: as §3

SMILES | normalised viability [1] [%] | normalised viability [2] [%] | normalised viability [3] [%] | normalised viability [4] [%] | normalised viability [5] [%] | normalised viability [6] [%] | normalised viability [7] [%] | normalised viability [8] [%] | normalised viability [9] [%] | normalised viability [10] [%] | normalised viability [11] [%] | normalised viability [12] [%] | normalised viability [13] [%] | normalised viability [14] [%] | normalised viability [15] [%] | normalised viability [16] [%] | normalised viability [17] [%] | normalised viability [18] [%] | normalised viability [19] [%] | normalised viability [20] [%] | normalised viability [21] [%] | normalised viability [22] [%] | normalised viability [23] [%] | normalised viability [24] [%] | drug sensitivity score [25] | drug sensitivity score [26] | drug sensitivity score [27]
Nc1nc2[nH]cc(CCc3ccc(C(=O)N[C@@H](CCC(=O)O)C(=O)O)cc3)c2c(=O)[nH]1 [Pemetrexed] | 106 | 110 | 93.6 | 107 | 102 | 83.7 | 98.9 | 106 | 113 | 109 | 92.5 | 100 | 99.3 | 101 | 89.2 | 92.6 | 101 | 104 | 114 | 93.1 | 96.9 | 87 | 84.5 | 107 | 0.385 | 0 | 0
N#Cc1ccc(C(c2ccc(C#N)cc2)n2cncn2)cc1 [Letrozole] | 101 | 104 | 81.2 | 86.4 | 100 | 69.4 | 86.8 | 73.4 | 107 | 108 | 73.7 | 78.8 | 96.3 | 105 | 83.2 | 103 | 96.4 | 114 | 94.5 | 49.6 | 90.6 | 74.3 | 97.8 | 90.9 | 0 | 0 | 0
Nc1ccccc1NC(=O)c1ccc(CNC(=O)OCc2cccnc2)cc1 [Entinostat] | 86.9 | 114 | 97.9 | 109 | 103 | 72 | 102 | 109 | 95.8 | 110 | 95.7 | 102 | 119 | 107 | 97 | 102 | 113 | 124 | 118 | 98.7 | 110 | 83.6 | 80.4 | 113 | 0 | 1.09 | 1.35
